Read-outs that look alike come from different tables or passages of the source.
Assays:
Format in all cases: cell-based
[1] = system: A-549 (Human lung adenocarcinoma cells); assay: MTT inhibition of tumor cell growth, A-549; conditions: Homo sapiens
Procedure, shortened: (§1)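 IC50 derived by Reed and Muench two-point method from A595 after MTT (4 h) and overnight 10% SDS solubilization. Compound treatment lasted 48 h at 37 °C, screened at 40 μM then 5 concentrations for actives, in triplicate; 5000-10000 cells/well in 10% FBS medium.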

[2] = system: SW-480 (human colon cancer cells); assay: MTT inhibition of tumor cell growth, SW-480; conditions: Homo sapiens
Procedure, shortened: as §1

[3] = system: MCF-7 (human breast cancer cells); assay: MTT inhibition of tumor cell growth, MCF-7; conditions: Homo sapiens
Procedure, shortened: as §1

[4] = system: HL-60 (human promyelocytic leukemia cells); assay: MTT inhibition of tumor cell growth, HL-60; conditions: Homo sapiens
Procedure, shortened: as §1

[5] = system: SMMC-7721 (human hepatoma cells); assay: MTT inhibition of tumor cell growth, SMMC-7721; conditions: Homo sapiens
Procedure, shortened: as §1

[6] = system: Wnt signaling pathway (Top-Flash reporter gene); assay: Top-Flash Wnt reporter gene assay in HEK293T cells with Wnt3a conditioned medium; conditions: Homo sapiens, HEK-293T, 6 h, 6 h
Procedure, shortened: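 IC50 is the concentration giving relative residual reporter activity of 0.5 by 4-parameter logistic fit, after subtracting conditioned-medium DMSO background and normalizing to Wnt-induced signal. Luciferase read from HEK293T carrying TOP-flash and GFP internal standard, exposed 6 h to L-cell Wnt3a conditioned medium plus compound.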

[7] = A549, 48 h, Table 2, derivatives having potential Michael reaction acceptor
[8] = A549, 48 h, Table 4, derivatives obtained by reduction of the lactonic ring
[9] = SW480, 48 h, Table 2, derivatives having potential Michael reaction acceptor, read-out: IC50 SW-480
[10] = SW480, 48 h, Table 4, derivatives obtained by reduction of the lactonic ring, read-out: IC50 SW-480
[11] = SW480, 48 h, Table 6, 7-carbonyl derivatives, read-out: IC50 SW-480, 7-carbonyl derivatives
[12] = MCF7, 48 h, Table 2, derivatives having potential Michael reaction acceptor
[13] = MCF7, 48 h, Table 4, derivatives obtained by reduction of the lactonic ring
[14] = HL-60, 48 h, Table 2, derivatives having potential Michael reaction acceptor
[15] = HL-60, 48 h, Table 4, derivatives obtained by reduction of the lactonic ring
[16] = SMMC-7721, 48 h, Table 2, derivatives having potential Michael reaction acceptor
[17] = SMMC-7721, 48 h, Table 4, derivatives obtained by reduction of the lactonic ring
[18] = Table 8, HEK293T, Wnt3a conditioned medium, read-out: IC50 (μM), inhibitory activity on the Wnt signaling pathway
[19] = Table 9, HEK293T, Wnt3a conditioned medium, read-out: IC50(μM), inhibitory activity on the Wnt signaling pathway
[20] = A549, 48 h, Table 5, derivatives having double Michael reaction acceptor
[21] = SW480, 48 h, Table 5, derivatives having double Michael reaction acceptor, read-out: IC50 SW-480
[22] = SW480, 48 h, Table 6, double Michael reaction acceptor derivatives, read-out: IC50 SW-480, derivatives having double Michael reaction acceptor
[23] = MCF7, 48 h, Table 5, derivatives having double Michael reaction acceptor
[24] = HL-60, 48 h, Table 5, derivatives having double Michael reaction acceptor
[25] = SMMC-7721, 48 h, Table 5, derivatives having double Michael reaction acceptor
[26] = Table 10, HEK293T, Wnt3a conditioned medium, read-out: IC50 (μM), inhibitory activity on the Wnt signaling pathway
[27] = A549, Table 7 (first), alkaloid derivatives, 48 h
[28] = SW480, Table 7 (first), alkaloid derivatives, 48 h, read-out: IC50 SW-480
[29] = MCF7, Table 7 (first), alkaloid derivatives, 48 h
[30] = HL-60, Table 7 (first), alkaloid derivatives, 48 h
[31] = SMMC-7721, Table 7 (first), alkaloid derivatives, 48 h
[32] = read-out: IC50 (μM), inhibitory activity on the Wnt signaling pathway

Compound	IC50 [1, 7] [µM]	IC50 [1, 8] [µM]	IC50 [2, 9] [µM]	IC50 [2, 10] [µM]	IC50 [3, 12] [µM]	IC50 [3, 13] [µM]	IC50 [4, 14] [µM]	IC50 [4, 15] [µM]	IC50 [5, 16] [µM]	IC50 [5, 17] [µM]	IC50 [6, 19] [µM]	other results
C=C1C(=O)C23CC[C@H]1CC2[C@]1(COC(C)=O)CCC[C@@](C)(COC(C)=O)C1CC3=O (some centres unmarked) [Compound 47]	2.95	2.95	3.74	3.74	3.38	3.38	3.38	3.38	3.91	3.91		IC50 [2, 11]: 3.67 µM; IC50 [6, 18]: 16.9 ± 1.89 µM
C=C1C(=O)C23CC[C@H]1CC2[C@]1(COC(C)=O)CCC[C@@](C)(COC(C)=O)C1[C@H](CO)C3=O (some centres unmarked) [Compound 48]	3.04		3.94		2.93		5.03		6.13		46.9 ± 1.26	
C=C1C(=O)C23CC[C@H]1CC2[C@]1(COC(C)=O)CCC[C@@](C)(COC(C)=O)C1[C@H](COS(C)(=O)=O)C3=O (some centres unmarked) [Compound 49]	11		15.5		12.8		6.5		14		58.2 ± 1.18	
C=C1C(=O)C23CC[C@H]1CC2[C@]1(COC(C)=O)CCC[C@@](C)(COC(C)=O)C1[C@H](CN1CCOCC1)C3=O (some centres unmarked) [Compound 50]	4.69		6.57		4.23		6.3		10.8		56 ± 0.92	
C=C1C(=O)C23CC[C@H]1CC2[C@]1(COC(C)=O)CCC[C@@](C)(COC(C)=O)C1[C@H](COC(C)=O)C3=O (some centres unmarked) [Compound 52]	11.1		12.9		15.1		6.33		15.4		> 60	
C=C1C(=O)C23CC[C@@H](CC2[C@]2(COC(C)=O)CCC[C@@](C)(COC(C)=O)C12)C(=C)C3=O (some centres unmarked) [Compound 53]											7.3	IC50 [1, 20]: 0.64 µM; IC50 [2, 21]: 0.78 µM; IC50 [2, 22]: 0.78 µM; IC50 [3, 23]: 0.65 µM; IC50 [4, 24]: 1.21 µM; IC50 [5, 25]: 0.75 µM
C=C1C(=O)C23CC[C@H]1CC2[C@]1(COCC#N)CCC[C@@](C)(COC(=O)c2cccs2)C1CC3=O (some centres unmarked) [Compound 55]		1.17		0.8		0.65		0.62		1.06		IC50 [6, 26]: 12.1 ± 1.25 µM
C=C1C(=O)[C@]23CC[C@H]1CC2[C@]1(COC(=O)N2CCOCC2)CCC[C@@](C)(COS(C)(=O)=O)C1CC3=O (some centres unmarked) [Compound 59]		4.21		2.94		3.31		4.18		3.95		IC50 [6, 26]: 43.8 ± 3.05 µM
C=C1C(=O)C23CC[C@H]1CC2[C@]1(COS(C)(=O)=O)CCC[C@@](C)(COC(=O)N2CCOCC2)C1CC3=O (some centres unmarked) [Compound 61]		2.32		3.37		2.05		2.7		2.18		IC50 [6, 26]: 32.3 ± 3.01 µM
C=C1C(=O)C23CC[C@H]1CC2[C@]1(COC(=O)c2cccs2)CCC[C@@](C)(COC(=O)c2cccs2)C1CC3=O (some centres unmarked) [Compound 64]		0.7		0.59		0.67		0.61		0.57		IC50 [2, 11]: 0.71 µM; IC50 [6, 18]: 7.83 ± 0.7 µM
C=C1C(=O)C23CC[C@@H](CC2[C@]2(COC(=O)c4cccs4)CCC[C@@](C)(COC(=O)c4cccs4)C12)C(=C)C3=O (some centres unmarked) [Compound 65]											7.68 ± 0.19	IC50 [1, 20]: 0.35 µM; IC50 [2, 21]: 0.16 µM; IC50 [2, 22]: 0.26 µM; IC50 [3, 23]: 0.33 µM; IC50 [4, 24]: 0.29 µM; IC50 [5, 25]: 0.22 µM
C=C1C(=O)C23CC[C@H]1CC2[C@]1(COC(C)=O)CCC[C@@](C)(COC(=O)c2cccs2)C1CC3=O (some centres unmarked) [Compound 66]		0.8		0.76		0.89		0.71		0.57		IC50 [2, 11]: 0.7 µM; IC50 [6, 18]: 8.39 ± 0.63 µM
C=C1C(=O)C23CC[C@@H](CC2[C@]2(COC(C)=O)CCC[C@@](C)(COC(=O)c4cccs4)C12)C(=C)C3=O (some centres unmarked) [Compound 67]											4.92 ± 0.69	IC50 [1, 20]: 0.14 µM; IC50 [2, 21]: 0.1 µM; IC50 [2, 22]: 0.13 µM; IC50 [3, 23]: 0.15 µM; IC50 [4, 24]: 0.24 µM; IC50 [5, 25]: 0.13 µM
C=C1C(=O)C23CC[C@H]1CC2[C@]1(COS(C)(=O)=O)CCC[C@@](C)(COS(C)(=O)=O)C1C[C@H]3O (some centres unmarked) [Compound 72a]		1.86		1.85		1.55		1.37		0.93		IC50 ([2]; SW480, 48 h, Table 6, 7-hydroxyl derivatives and controls, read-out: IC50 SW-480, 7-hydroxyl derivatives): 2.23 µM; IC50 [6, 18]: 12.6 ± 1.04 µM
C=C1C(=O)C23CC[C@H]1CC2[C@]1(COS(C)(=O)=O)CCC[C@@](C)(COS(C)(=O)=O)C1CC3=O (some centres unmarked) [Compound 73a]		2.89		2.57		2.36		3.97		0.77		IC50 [2, 11]: 2.57 µM; IC50 [6, 18]: 43 ± 5.35 µM
C=C1C(=O)C23CC[C@@H](CC2[C@]2(COS(C)(=O)=O)CCC[C@@](C)(COS(C)(=O)=O)C12)C(=C)C3=O (some centres unmarked) [Compound 74a]											11.2 ± 1.54	IC50 [1, 20]: 0.56 µM; IC50 [2, 21]: 0.15 µM; IC50 [2, 22]: 0.65 µM; IC50 [3, 23]: 0.53 µM; IC50 [4, 24]: 0.51 µM; IC50 [5, 25]: 0.26 µM
C[C@]12CCC[C@@]3(C(=O)OC1)C1C[C@@H]4CCC1(C(=O)[C@H]4CN1CCOCC1)[C@H](O)CC23 (some centres unmarked) [Compound 75]	3.64		8.01		4.12		3.78		5.97		> 60	
C[C@]12CCC[C@@]3(C(=O)OC1)C1C[C@@H]4CCC1(C(=O)[C@@H]4CN1CCOCC1)[C@H](O)CC23 (some centres unmarked) [Compound 76]	4.04		7.69		5.96		5.28		13.1		> 60	
C=C1C(=O)[C@]23CC[C@H]1CC2[C@@]12CCC[C@@]4(C)C5OCCN5C1O[C@@H]3CC42 (some centres unmarked) [Compound 77]												IC50 [1, 27]: 2.03 µM; IC50 [2, 28]: 1.97 µM; IC50 [3, 29]: 0.67 µM; IC50 [4, 30]: 1.34 µM; IC50 [5, 31]: 1.04 µM; IC50 [6, 32]: > 60 µM
C=C1C(=O)[C@]23CC[C@H]1CC2[C@@]12CCC[C@@](C)(C(=O)N4CCO[C@H]41)C2C[C@H]3O (some centres unmarked) [Compound 78]												IC50 ([1]; A549, 48 h, Table 7 (first), alkaloid derivatives): 3.09 µM; IC50 ([2]; SW480, 48 h, Table 7 (first), alkaloid derivatives, read-out: IC50 SW-480): 2.81 µM; IC50 ([3]; MCF7, 48 h, Table 7 (first), alkaloid derivatives): 1.12 µM; IC50 ([4]; HL-60, 48 h, Table 7 (first), alkaloid derivatives): 2.73 µM; IC50 ([5]; SMMC-7721, 48 h, Table 7 (first), alkaloid derivatives): 2.63 µM; IC50 ([6]; Table 11, HEK293T, Wnt3a conditioned medium, read-out: IC50 (μM), inhibitory activity on the Wnt signaling pathway): 28.7 ± 0.97 µM
C=C1C(=O)[C@]23CC[C@H]1CC2[C@@]12CCC[C@@]4(C)C(=O)N(CCO)[C@@H]1O[C@@H]3CC24 (some centres unmarked) [Compound 83]												IC50 [1, 27]: 17.9 µM; IC50 [2, 28]: 12.4 µM; IC50 [3, 29]: 13.2 µM; IC50 [4, 30]: 18.6 µM; IC50 [5, 31]: 18.4 µM; IC50 [6, 32]: > 60 µM
C=C1C(=O)[C@]23CC[C@H]1CC2[C@@]12CCC[C@@]4(C)C(=O)N[C@@H]1O[C@@H]3CC24 (some centres unmarked) [Compound 84]												IC50 [1, 27]: 19 µM; IC50 [2, 28]: 14.2 µM; IC50 [3, 29]: 15.7 µM; IC50 [4, 30]: 18.6 µM; IC50 [5, 31]: 15.7 µM; IC50 [6, 32]: 60.6 ± 3.09 µM
C=C1C(=O)[C@]23CC[C@H]1CC2[C@@]12CCC[C@@](C)(CN(CCO)C1)C2C[C@H]3O (some centres unmarked) [Compound 88]												IC50 [1, 27]: 9.92 µM; IC50 [2, 28]: 14.4 µM; IC50 [3, 29]: 16.6 µM; IC50 [4, 30]: 7.95 µM; IC50 [5, 31]: 11.2 µM; IC50 [6, 32]: > 60 µM

— patent publication US10112918B2, “15-oxospiramilactone derivatives, preparation method and uses thereof” (Kunming Institute of Botany, The Chinese Academy of Sciences, priority 2013, dated 2018)
